Source: ChEMBL document CHEMBL1139180, “Design, synthesis, and bioactivity of novel inhibitors of E. coli aspartate transcarbamoylase” (Bioorg Med Chem Lett, 2007)

Assay: Inhibition of Escherichia coli ATCase

Compound	IC50
O=C(CP(=O)(O)O)NC(CO)CCO (stereo not given)	2900 µM
O=C(CP(=O)(O)O)NC(Cc1ccc(O)cc1)C(=O)O (stereo not given)	63 µM
CC(O)C(NC(=O)CP(=O)(O)O)C(=O)O (stereo not given)	42 µM
O=C(CP(=O)(O)O)NC(C(=O)O)C(=O)O	43.5 µM
O=C(CP(=O)(O)O)NC(CCO)C(=O)O (stereo not given)	3.9 µM
O=C(CP(=O)(O)O)NC(CO)C(=O)O (stereo not given)	30 µM
O=C(CP(=O)(O)O)NC(CO)CO	12500 µM

Stronger by IC50, values ahead:

IC50	Compound
0.225 µM	NC(=O)CC(NC(=O)CP(=O)(O)O)C(=O)O (stereo not given)
0.087 µM	NC(=O)C(CC(=O)O)NC(=O)CP(=O)(O)O (stereo not given)
0.055 µM	O=C(O)C[C@H](NC(=O)CP(=O)(O)O)C(=O)O [PALA]
